Results: ChEMBL document CHEMBL1921771, “Structure-activity relationships of ganoderma acids from Ganoderma lucidum as aldose reductase inhibitors” (Bioorg Med Chem Lett, 2011)

Biological target: Aldo-keto reductase family 1 member B1 (Homo sapiens, UniProt P15121)
Experiment: Inhibition of recombinant human aldose reductase using dl-glyceraldehyde as substrate after 10 mins by spectrophotometry

Compound	IC50
COC(=O)C(C)CC(=O)C[C@@H](C)[C@H]1CC(=O)[C@@]2(C)C3=C([C@@H](O)C[C@]12C)[C@@]1(C)CCC(=O)C(C)(C)[C@@H]1C[C@@H]3O (some centres not stated)	> 189 µM
COC(=O)[C@H](C)CC(=O)C[C@@H](C)[C@H]1C[C@H](O)[C@@]2(C)C3=C(C(=O)C[C@]12C)[C@@]1(C)CC[C@H](O)C(C)(C)[C@@H]1C[C@@H]3O	> 184 µM
C/C(=C\C(=O)CC(C)C(=O)O)[C@H]1C[C@H](O)[C@@]2(C)C3=C(C(=O)C[C@]12C)[C@@]1(C)CCC(=O)C(C)(C)[C@@H]1C[C@@H]3O (some centres not stated) [GANODERENIC ACID A]	119 µM
C[C@H](CC(=O)C[C@@H](C)[C@H]1C[C@H](O)[C@@]2(C)C3=C(C(=O)C[C@]12C)[C@@]1(C)CCC(=O)C(C)(C)[C@@H]1C[C@@H]3O)C(=O)O [GANODERIC ACID A]	> 193 µM
CC(CC(=O)C[C@@H](C)[C@H]1CC(=O)[C@@]2(C)C3=C(C(=O)C[C@]12C)[C@@]1(C)CC[C@H](O)C(C)(C)[C@@H]1C[C@@H]3O)C(=O)O (some centres not stated) [GANODERIC ACID B]	> 193 µM
C[C@H](CC(=O)C[C@@H](C)[C@H]1CC(=O)[C@@]2(C)C3=C(C(=O)C[C@]12C)[C@@]1(C)CCC(=O)C(C)(C)[C@@H]1C[C@@H]3O)C(=O)O [GANODERIC ACID C1]	> 194 µM
C[C@H](CC(=O)C[C@@H](C)[C@H]1C[C@H](O)[C@@]2(C)C3=C(C(=O)C[C@]12C)[C@@]1(C)CC[C@H](O)C(C)(C)[C@@H]1C[C@@H]3O)C(=O)O [GANODERIC ACID C2]	43.8 µM
CC(CC(=O)C[C@@H](C)[C@H]1CC(=O)[C@@]2(C)C3=C(C(=O)[C@@H](O)[C@]12C)[C@@]1(C)CC[C@H](O)C(C)(C)[C@@H]1CC3=O)C(=O)O (some centres not stated) [GANODERIC ACID C6]	> 193 µM
CC(CC(=O)C[C@@H](C)[C@H]1CC(=O)[C@@]2(C)C3=C([C@@H](O)C[C@]12C)[C@@]1(C)CCC(=O)C(C)(C)[C@@H]1C[C@@H]3O)C(=O)O (some centres not stated) [GANODERIC ACID DF]	22.8 µM
CC(CC(=O)C[C@@H](C)[C@H]1CC(=O)[C@@]2(C)C3=C(C(=O)C[C@]12C)[C@@]1(C)CCC(=O)C(C)(C)[C@@H]1C[C@@H]3O)C(=O)O (some centres not stated) [GANODERIC ACID D]	> 195 µM
CC(CC(=O)C[C@@H](C)[C@H]1CC(=O)[C@@]2(C)C3=C(C(=O)[C@@H](O)[C@]12C)[C@@]1(C)CC[C@H](O)C(C)(C)[C@@H]1C[C@@H]3O)C(=O)O (some centres not stated) [GANODERIC ACID G]	> 188 µM
CC(=O)O[C@@H]1C(=O)C2=C(C(=O)C[C@H]3C(C)(C)[C@@H](O)CC[C@]23C)[C@]2(C)C(=O)C[C@H]([C@H](C)CC(=O)CC(C)C(=O)O)[C@@]12C (some centres not stated) [GANODERIC ACID H]	> 175 µM
CC(CC(=O)C[C@@H](C)[C@H]1C[C@H](O)[C@@]2(C)C3=C(C(=O)C[C@]12C)[C@@]1(C)CCC(=O)C(C)(C)[C@@H]1CC3=O)C(=O)O (some centres not stated) [GANODERIC ACID J]	> 194 µM
CC(=O)O[C@@H]1C(=O)C2=C([C@@H](O)C[C@H]3C(C)(C)[C@@H](O)CC[C@]23C)[C@]2(C)C(=O)C[C@H]([C@H](C)CC(=O)CC(C)C(=O)O)[C@@]12C (some centres not stated) [GANODERIC ACID K]	> 174 µM
CC(CC(=O)C[C@@H](C)[C@H]1C[C@H](O)[C@@]2(C)C3=C(C(=O)C[C@]12C)[C@@]1(C)CC[C@H](O)C(C)(C)[C@@H]1CC3)C(=O)O (some centres not stated) [GANOLUCIDIC ACID B]	> 199 µM
COC(=O)C(C)CC(=O)C[C@@H](C)[C@H]1C[C@H](O)[C@@]2(C)C3=C(C(=O)C[C@]12C)[C@@]1(C)CCC(=O)C(C)(C)[C@@H]1C[C@@H]3O (some centres not stated) [METHYL GANODERATE A]	> 189 µM
COC(=O)C(C)CC(=O)/C=C(\C)[C@H]1C[C@H](O)[C@@]2(C)C3=C(C(=O)C[C@]12C)[C@@]1(C)CCC(=O)C(C)(C)[C@@H]1C[C@@H]3O (some centres not stated) [METHYL GANODERENATE A]	> 184 µM
